BindingDB's records for doi:10.7270/Q29G5K5D (Cc_Pmlsc, 2007)

The compounds below were run against T1, Dual specificity protein phosphatase 1 (Homo sapiens, UniProt P28562) (assay: MKP-1 phosphatase inhibitors, SAR follow-up, biochemical, in vitro (AID 579)). Settings: pH 7; 23 °C.
T1 sequence (P28562 whole entry): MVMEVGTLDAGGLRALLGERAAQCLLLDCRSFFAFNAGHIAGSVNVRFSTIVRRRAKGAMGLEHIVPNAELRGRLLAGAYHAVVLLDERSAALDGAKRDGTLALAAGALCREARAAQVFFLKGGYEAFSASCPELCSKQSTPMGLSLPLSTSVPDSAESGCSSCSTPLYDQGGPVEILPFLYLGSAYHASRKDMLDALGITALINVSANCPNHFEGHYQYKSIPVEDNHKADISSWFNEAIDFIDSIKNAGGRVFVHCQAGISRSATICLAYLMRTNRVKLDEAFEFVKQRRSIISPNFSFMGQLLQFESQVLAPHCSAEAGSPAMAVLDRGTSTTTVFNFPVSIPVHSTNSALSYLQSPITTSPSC

Structure (SMILES) | IC50
Nc1cc(=O)[nH]c(=O)n1CC1CC1 | > 50 µM
NC(=O)NCC1CC1 [1-(cyclopropylmethyl)urea] | > 50 µM
Oc1cc(C(F)(F)F)nc2c(C(F)(F)F)cccc12 [2,8-bis(trifluoromethyl)-1H-quinolin-4-one] | > 50 µM
Cn1c(N)c(C(=O)COC(=O)c2cc(C(F)(F)F)nc3c(C(F)(F)F)cccc23)c(=O)n(C)c1=O [2,8-bis(trifluoromethyl)-4-quinolinecarboxylic acid [2-(4-amino-1,3-dimethyl-2,6-dioxo-5-pyrimidinyl)-2-oxoethyl] ester] | > 50 µM
Cn1c(=O)c(C(=O)COC(=O)c2cc(C(F)(F)F)nc3c(C(F)(F)F)cccc23)c(N)n(Cc2ccccc2)c1=O [2,8-bis(trifluoromethyl)-4-quinolinecarboxylic acid [2-[4-amino-1-methyl-2,6-dioxo-3-(phenylmethyl)-5-pyrimidinyl]-2-oxoethyl] ester] | > 50 µM
CC(C)Cn1c(N)c(C(=O)COC(=O)c2cc(C(F)(F)F)nc3c(C(F)(F)F)cccc23)c(=O)n(C)c1=O [2,8-bis(trifluoromethyl)-4-quinolinecarboxylic acid [2-[4-amino-1-methyl-3-(2-methylpropyl)-2,6-dioxo-5-pyrimidinyl]-2-oxoethyl] ester] | > 50 µM
Cn1c(=O)c(C(=O)COC(=O)c2cc(C(F)(F)F)nc3c(C(F)(F)F)cccc23)c(N)n(CC2CC2)c1=O [2,8-bis(trifluoromethyl)-4-quinolinecarboxylic acid [2-[6-amino-1-(cyclopropylmethyl)-3-methyl-2,4-dioxo-5-pyrimidinyl]-2-oxoethyl] ester] | > 50 µM
Cn1c(N)c(C(=O)COC(=O)c2cc(C(F)(F)F)nc3c(C(F)(F)F)cccc23)c(=O)n(Cc2ccccc2)c1=O [2,8-bis(trifluoromethyl)-4-quinolinecarboxylic acid [2-[6-amino-1-methyl-2,4-dioxo-3-(phenylmethyl)-5-pyrimidinyl]-2-oxoethyl] ester] | > 50 µM
O=C(O)c1cc(C(F)(F)F)nc2c(C(F)(F)F)cccc12 [2,8-bis(trifluoromethyl)-4-quinolinecarboxylic acid] | > 50 µM
Cn1c(N)c(C(=O)COC(=O)c2cc(-c3ccco3)nc3ccccc23)c(=O)n(C)c1=O [2-(2-furanyl)-4-quinolinecarboxylic acid [2-(4-amino-1,3-dimethyl-2,6-dioxo-5-pyrimidinyl)-2-oxoethyl] ester] | 20.6 µM
CC(C)Cn1c(N)c(C(=O)COC(=O)c2cc(-c3ccco3)nc3ccccc23)c(=O)n(C)c1=O [2-(2-furanyl)-4-quinolinecarboxylic acid [2-[4-amino-1-methyl-3-(2-methylpropyl)-2,6-dioxo-5-pyrimidinyl]-2-oxoethyl] ester] | 50 µM
Cn1c(=O)c(C(=O)COC(=O)c2cc(-c3ccco3)nc3ccccc23)c(N)n(CC2CC2)c1=O [2-(2-furanyl)-4-quinolinecarboxylic acid [2-[6-amino-1-(cyclopropylmethyl)-3-methyl-2,4-dioxo-5-pyrimidinyl]-2-oxoethyl] ester] | 24.6 µM
Cn1c(N)c(C(=O)COC(=O)c2cc(-c3ccco3)nc3ccccc23)c(=O)n(Cc2ccccc2)c1=O [2-(2-furanyl)-4-quinolinecarboxylic acid [2-[6-amino-1-methyl-2,4-dioxo-3-(phenylmethyl)-5-pyrimidinyl]-2-oxoethyl] ester] | 16.9 µM
O=C(O)c1cc(-c2ccco2)nc2ccccc12 [2-(2-furanyl)-4-quinolinecarboxylic acid] | > 50 µM

More lines, now with the values ahead:

IC50 | Structure (SMILES)
> 50 µM | Cn1c(N)c(C(=O)COC(=O)c2cc(C(F)(F)F)nc3ccccc23)c(=O)n(C)c1=O [2-(trifluoromethyl)-4-quinolinecarboxylic acid [2-(4-amino-1,3-dimethyl-2,6-dioxo-5-pyrimidinyl)-2-oxoethyl] ester]
> 50 µM | Cn1c(=O)c(C(=O)COC(=O)c2cc(C(F)(F)F)nc3ccccc23)c(N)n(Cc2ccccc2)c1=O [2-(trifluoromethyl)-4-quinolinecarboxylic acid [2-[4-amino-1-methyl-2,6-dioxo-3-(phenylmethyl)-5-pyrimidinyl]-2-oxoethyl] ester]
> 50 µM | CC(C)Cn1c(N)c(C(=O)COC(=O)c2cc(C(F)(F)F)nc3ccccc23)c(=O)n(C)c1=O [2-(trifluoromethyl)-4-quinolinecarboxylic acid [2-[4-amino-1-methyl-3-(2-methylpropyl)-2,6-dioxo-5-pyrimidinyl]-2-oxoethyl] ester]
> 50 µM | Cn1c(N)c(C(=O)COC(=O)c2cc(C(F)(F)F)nc3ccccc23)c(=O)n(Cc2ccccc2)c1=O [2-(trifluoromethyl)-4-quinolinecarboxylic acid [2-[6-amino-1-methyl-2,4-dioxo-3-(phenylmethyl)-5-pyrimidinyl]-2-oxoethyl] ester]
> 50 µM | O=C(O)c1cc(C(F)(F)F)nc2ccccc12 [2-(trifluoromethyl)-4-quinolinecarboxylic acid]
> 50 µM | N#CCC(=O)NC(=O)NCC1CC1 [2-cyano-N-(cyclopropylmethylcarbamoyl)acetamide]
> 50 µM | Cn1c(N)c(C(=O)COC(=O)c2cc(C3CC3)nc3ccccc23)c(=O)n(C)c1=O [2-cyclopropyl-4-quinolinecarboxylic acid [2-(4-amino-1,3-dimethyl-2,6-dioxo-5-pyrimidinyl)-2-oxoethyl] ester]
> 50 µM | Cn1c(=O)c(C(=O)COC(=O)c2cc(C3CC3)nc3ccccc23)c(N)n(Cc2ccccc2)c1=O [2-cyclopropyl-4-quinolinecarboxylic acid [2-[4-amino-1-methyl-2,6-dioxo-3-(phenylmethyl)-5-pyrimidinyl]-2-oxoethyl] ester]
> 50 µM | CC(C)Cn1c(N)c(C(=O)COC(=O)c2cc(C3CC3)nc3ccccc23)c(=O)n(C)c1=O [2-cyclopropyl-4-quinolinecarboxylic acid [2-[4-amino-1-methyl-3-(2-methylpropyl)-2,6-dioxo-5-pyrimidinyl]-2-oxoethyl] ester]
28.9 µM | Cn1c(N)c(C(=O)COC(=O)c2cc(C3CC3)nc3ccccc23)c(=O)n(Cc2ccccc2)c1=O [2-cyclopropyl-4-quinolinecarboxylic acid [2-[6-amino-1-methyl-2,4-dioxo-3-(phenylmethyl)-5-pyrimidinyl]-2-oxoethyl] ester]
> 50 µM | O=C(O)c1cc(C2CC2)nc2ccccc12 [2-cyclopropyl-4-quinolinecarboxylic acid]
> 50 µM | Cn1c(N)c(C(=O)COC(=O)c2cc(-c3ccccc3)nc3ccccc23)c(=O)n(C)c1=O [2-phenyl-4-quinolinecarboxylic acid [2-(4-amino-1,3-dimethyl-2,6-dioxo-5-pyrimidinyl)-2-oxoethyl] ester]
50 µM | Cn1c(=O)c(C(=O)COC(=O)c2cc(-c3ccccc3)nc3ccccc23)c(N)n(Cc2ccccc2)c1=O [2-phenyl-4-quinolinecarboxylic acid [2-[4-amino-1-methyl-2,6-dioxo-3-(phenylmethyl)-5-pyrimidinyl]-2-oxoethyl] ester]
> 50 µM | CC(C)Cn1c(N)c(C(=O)COC(=O)c2cc(-c3ccccc3)nc3ccccc23)c(=O)n(C)c1=O [2-phenyl-4-quinolinecarboxylic acid [2-[4-amino-1-methyl-3-(2-methylpropyl)-2,6-dioxo-5-pyrimidinyl]-2-oxoethyl] ester]
